The values below come from US9486506B2 (Novo Nordisk A/S, priority 2011, dated 2016).

Data set [1] has as its target T1, glucagon receptor (Homo sapiens, UniProt P47871).
T1 construct: expressed in transfected cells
The data set can be described thus: Assay (I) Glucagon activity (cAMP biosensor, FLIPR). The class given is cell-based.

Data set [2] can be described thus: Assay (X) Chemical stability assessment by RP-UPLC. The settings on record: pH 8.15, 14 days at 37° C. vs 5° C., 333 μM. It counts as physicochemical. As to the method: Chemical Stability Assessment
Lyophilized samples were dissolved in buffer (see below for detailed compositions) to a final concentration of 333 μM and a pH of 8.15, and were incubated for 14 days at 5° C. and 37° C. followed by RP-UPLC analysis. Purity was defined as the area percentage of the main peak in relation to the total area of all integrated peaks in each chromatogram. Purity loss after 14 days at 37° C. was determined as the difference in purity between the samples incubated at 5° C. and 37° C., divided by the purity of the sample after incubation for 14 days at 5° C.
RP-UPLC analysis was performed using a Waters BEH130 2.1 mm×150 mm, 1.7 μm column operated at 50° C. and a flow rate of 0.4 mL/min using a mobile phase system consisting of typically A: 50 mM Phosphate, 10 w/w % Acetonitrile pH 3 and B: 80 v/v Acetonitrile. UV-detection was performed at 215 nm. The typical gradient profile used for most of the samples is shown below.
For some individual analogues eluting at substantially different retention times compared with the majority of analogues, some adjustments to the gradient profile were made to better enable purity assessment comparison across samples. Also the composition of the channel B mobile phase component was in some of the analyses exchanged for a 90 v/v % Acetonitrile solvent solution in an attempt to better handle carry-over of material from one injection to the next in the sequence. This was however compensated for by recalculating the gradient profile appropriately.
Buffer: • 50 mM Dinatriumphosphatdihydrat • 184 mM Propylenglycol • 58 mM Phenol • pH adjusted to 8.15 with H3PO4. In cases where pH was adjusted to 8.15 after re-suspension of analogues, 0.2 M NaOH was used. Assay (XI) Pharmacokinetic Study in Minipigs

Structures are written as SMILES. pEC50: −log10 of the molar value. Numbered stars: 1 amine (or outer) side, 2 acyl side, 3 side chain; on linkers, the order of the positions; unused ones are H or OH. Side chains are listed from the residue outwards. Peptide text beside a SMILES is read from it. * marks the point of attachment. C18 diacid = O=C(O)CCCCCCCCCCCCCCCCC(=O)*; C16 diacid = O=C(O)CCCCCCCCCCCCCCC(=O)*; γGlu = O=C(O)[C@H](CCC(=O)[*:2])N[*:1]; AEEA = NCCOCCOCC(=O)O

T1 sequence (P47871 26-477): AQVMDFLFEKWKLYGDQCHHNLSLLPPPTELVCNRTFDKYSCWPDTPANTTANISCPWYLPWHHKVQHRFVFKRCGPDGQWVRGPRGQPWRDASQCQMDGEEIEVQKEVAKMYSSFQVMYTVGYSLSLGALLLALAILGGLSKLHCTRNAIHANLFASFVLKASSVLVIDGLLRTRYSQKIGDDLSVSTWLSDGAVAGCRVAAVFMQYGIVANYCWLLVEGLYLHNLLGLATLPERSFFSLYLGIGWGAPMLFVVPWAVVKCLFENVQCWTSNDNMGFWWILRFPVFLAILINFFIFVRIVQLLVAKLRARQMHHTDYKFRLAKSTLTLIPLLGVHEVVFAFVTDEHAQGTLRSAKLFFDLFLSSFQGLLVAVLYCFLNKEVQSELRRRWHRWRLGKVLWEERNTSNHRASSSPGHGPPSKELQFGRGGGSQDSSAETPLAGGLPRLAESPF

With `CC(C)C[C@H](NC(=O)[C@H](Cc1ccc(O)cc1)NC(=O)[C@H](CCCCN)NC(=O)[C@H](CO)NC(=O)[C@H](Cc1ccc(O)cc1)NC(=O)[C@H](CC(=O)O)NC(=O)[C@H](CO)NC(=O)[C@@H](NC(=O)[C@H](Cc1ccccc1)NC(=O)[C@@H](NC(=O)CNC(=O)[C@H](CCC(N)=O)NC(=O)[C@H](CO)NC(=O)[C@@H](N)Cc1c[nH]cn1)[C@@H](C)O)[C@@H](C)O)C(=O)N[C@@H](CCC(=O)O)C(=O)N[C@@H](CO)C(=O)N[C@@H](CCCNC(=N)N)C(=O)N[C@@H](CCCNC(=N)N)C(=O)N[C@@H](C)C(=O)N[C@@H](CCC(N)=O)C(=O)N[C@@H](CC(=O)O)C(=O)N[C@@H](Cc1ccccc1)C(=O)N[C@H](C(=O)N[C@@H](CCCCNC(=O)CC[C@H](NC(=O)CC[C@H](NC(=O)COCCOCCNC(=O)CC[C@H](NC(=O)CCCCCCCCCCCCCCCCC(=O)O)C(=O)O)C(=O)O)C(=O)O)C(=O)N[C@@H](Cc1c[nH]c2ccccc12)C(=O)N[C@@H](CC(C)C)C(=O)N[C@@H](CC(C)C)C(=O)N[C@@H](CO)C(=O)N[C@H](C(=O)O)[C@@H](C)O)C(C)C` [Example 1, N^ε24-[(4S)-4-carboxy-4-[[(4S)-4-carboxy-4-[[2-[2-[2-[[(4S)-4-carboxy-4-(17-carboxyheptadecanoylamino)butanoyl]amino]ethoxy]ethoxy]acetyl]amino]butanoyl]amino]butanoyl]-[Glu^15,Lys^24,Leu^27,Ser^28]-Glucagon], the negative-log EC50 (pEC50) – broadly, −log10 of the EC50, conventionally taken in molar units – in data set [1] was 9.55. Also, the “Chemical stability [Purity loss/14 days 37 C.]” value in data set [2] was 7.6%. In the case of `CC(C)C[C@H](NC(=O)[C@H](Cc1ccc(O)cc1)NC(=O)[C@H](CCCCN)NC(=O)[C@H](CO)NC(=O)[C@H](Cc1ccc(O)cc1)NC(=O)[C@H](CC(=O)O)NC(=O)[C@H](CO)NC(=O)[C@@H](NC(=O)[C@H](Cc1ccccc1)NC(=O)[C@@H](NC(=O)CNC(=O)[C@H](Cc1c[nH]cn1)NC(=O)[C@H](CO)NC(=O)[C@@H](N)Cc1c[nH]cn1)[C@@H](C)O)[C@@H](C)O)C(=O)N[C@@H](CC(=O)O)C(=O)N[C@@H](CCC(=O)O)C(=O)N[C@@H](CCCNC(=N)N)C(=O)N[C@@H](CCCNC(=N)N)C(=O)N[C@@H](C)C(=O)N[C@@H](CCCCN)C(=O)N[C@@H](CC(=O)O)C(=O)N[C@@H](Cc1ccccc1)C(=O)N[C@H](C(=O)N[C@@H](CCCCNC(=O)CC[C@H](NC(=O)CC[C@H](NC(=O)COCCOCCNC(=O)COCCOCCNC(=O)CC[C@H](NC(=O)CCCCCCCCCCCCCCCCC(=O)O)C(=O)O)C(=O)O)C(=O)O)C(=O)N[C@@H](Cc1c[nH]c2ccccc12)C(=O)N[C@@H](CC(C)C)C(=O)N[C@@H](CC(C)C)C(=O)N[C@@H](CO)C(=O)N[C@H](C(=O)O)[C@@H](C)O)C(C)C` [Example 4, N^ε24-[(4S)-4-carboxy-4-[[(4S)-4-carboxy-4-[[2-[2-[2-[[2-[2-[2-[[(4S)-4-carboxy-4-(17-carboxyheptadecanoylamino)butanoyl]amino]ethoxy]ethoxy]acetyl]amino]ethoxy]ethoxy]acetyl]amino]butanoyl]amino]butanoyl]-[His^3,Glu^16,Lys^20,Lys^24,Leu^27,Ser^28]-Glucagon] (H-HSHGTFTSDYSKYLDERRAKDFVK([γGlu-γGlu-AEEA-AEEA-γGlu-C18 diacid])WLLST-OH), in data set [1], the negative-log EC50 (pEC50) is 9.63. Besides, the “Chemical stability [Purity loss/14 days 37 C.]” value in data set [2] was 7.5%. For the compound `CC(C)C[C@H](NC(=O)[C@H](Cc1c[nH]c2ccccc12)NC(=O)[C@H](CCCCNC(=O)CC[C@H](NC(=O)CC[C@H](NC(=O)COCCOCCNC(=O)COCCOCCNC(=O)CC[C@H](NC(=O)CCCCCCCCCCCCCCCCC(=O)O)C(=O)O)C(=O)O)C(=O)O)NC(=O)[C@@H](NC(=O)[C@H](Cc1ccccc1)NC(=O)[C@H](CC(=O)O)NC(=O)[C@H](CCC(N)=O)NC(=O)[C@H](C)NC(=O)[C@H](CCCNC(=N)N)NC(=O)[C@H](CCCNC(=N)N)NC(=O)[C@@H](NC(=O)[C@H](CCC(=O)O)NC(=O)[C@H](CC(C)C)NC(=O)[C@H](Cc1ccc(O)cc1)NC(=O)[C@H](CCCCN)NC(=O)[C@H](CO)NC(=O)[C@H](Cc1ccc(O)cc1)NC(=O)[C@H](CC(=O)O)NC(=O)[C@H](CO)NC(=O)[C@@H](NC(=O)[C@H](Cc1ccccc1)NC(=O)[C@@H](NC(=O)CNC(=O)[C@H](Cc1c[nH]cn1)NC(=O)[C@H](CO)NC(=O)[C@@H](N)Cc1c[nH]cn1)[C@@H](C)O)[C@@H](C)O)[C@@H](C)O)C(C)C)C(=O)N[C@@H](CC(C)C)C(=O)N[C@@H](CC(N)=O)C(=O)N[C@H](C(=O)O)[C@@H](C)O` [Example 9, N^ε24-[(4S)-4-carboxy-4-[[(4S)-4-carboxy-4-[[2-[2-[2-[[2-[2-[2-[[(4S)-4-carboxy-4-(17-carboxyheptadecanoylamino)butanoyl]amino]ethoxy]ethoxy]acetyl]amino]ethoxy]ethoxy]acetyl]amino]butanoyl]amino]butanoyl]-[His^3,Glu^15,Thr^16,Lys^24,Leu^27]-Glucagon] (H-HSHGTFTSDYSKYLETRRAQDFVK([γGlu-γGlu-AEEA-AEEA-γGlu-C18 diacid])WLLNT-OH), the negative-log EC50 (pEC50) in data set [1] is 10.44. Besides, the “Chemical stability [Purity loss/14 days 37 C.]” value in data set [2] is given as 10%. For `CC(C)C[C@H](NC(=O)[C@H](Cc1ccc(O)cc1)NC(=O)[C@H](CCCNC(=N)N)NC(=O)[C@H](CO)NC(=O)[C@H](Cc1ccc(O)cc1)NC(=O)[C@H](CC(=O)O)NC(=O)[C@H](CO)NC(=O)[C@@H](NC(=O)[C@H](Cc1ccccc1)NC(=O)[C@@H](NC(=O)CNC(=O)[C@H](CCC(N)=O)NC(=O)[C@H](CO)NC(=O)[C@@H](N)Cc1c[nH]cn1)[C@@H](C)O)[C@@H](C)O)C(=O)N[C@@H](CCC(=O)O)C(=O)N[C@@H](CO)C(=O)N[C@@H](CCCNC(=N)N)C(=O)N[C@@H](CCCNC(=N)N)C(=O)N[C@@H](C)C(=O)N[C@@H](CCC(N)=O)C(=O)N[C@@H](CC(=O)O)C(=O)N[C@@H](Cc1ccccc1)C(=O)N[C@H](C(=O)N[C@@H](CCCCNC(=O)CC[C@H](NC(=O)CC[C@H](NC(=O)COCCOCCNC(=O)COCCOCCNC(=O)CC[C@H](NC(=O)CCCCCCCCCCCCCCCCC(=O)O)C(=O)O)C(=O)O)C(=O)O)C(=O)N[C@@H](Cc1c[nH]c2ccccc12)C(=O)N[C@@H](CC(C)C)C(=O)N[C@@H](CC(C)C)C(=O)N[C@@H](CO)C(=O)N[C@H](C(=O)O)[C@@H](C)O)C(C)C` [Example 14, N^ε24-[(4S)-4-carboxy-4-[[(4S)-4-carboxy-4-[[2-[2-[2-[[2-[2-[2-[[(4S)-4-carboxy-4-(17-carboxyheptadecanoylamino)butanoyl]amino]ethoxy]ethoxy]acetyl]amino]ethoxy]ethoxy]acetyl]amino]butanoyl]amino]butanoyl]-[Arg^12,Glu^15,Lys^24,Leu^27,Ser^25]-Glucagon] (H-HSQGTFTSDYSRYLESRRAQDFVK([γGlu-γGlu-AEEA-AEEA-γGlu-C18 diacid])WLLST-OH; N-terminus and C-terminus assumed), the “Chemical stability [Purity loss/14 days 37 C.]” value in data set [2] amounted to 8.6%. Take `CC(C)C[C@H](NC(=O)[C@H](Cc1c[nH]c2ccccc12)NC(=O)[C@H](CCCCNC(=O)CC[C@H](NC(=O)CC[C@H](NC(=O)COCCOCCNC(=O)COCCOCCNC(=O)CC[C@H](NC(=O)CCCCCCCCCCCCCCC(=O)O)C(=O)O)C(=O)O)C(=O)O)NC(=O)[C@@H](NC(=O)[C@H](Cc1ccccc1)NC(=O)[C@H](CC(=O)O)NC(=O)[C@H](CCC(N)=O)NC(=O)[C@H](C)NC(=O)[C@H](CCCNC(=N)N)NC(=O)[C@H](CCCNC(=N)N)NC(=O)[C@@H](NC(=O)[C@H](CC(=O)O)NC(=O)[C@H](CC(C)C)NC(=O)[C@H](Cc1ccc(O)cc1)NC(=O)[C@H](CCCNC(=N)N)NC(=O)[C@H](CO)NC(=O)[C@H](Cc1ccc(O)cc1)NC(=O)[C@H](CC(=O)O)NC(=O)[C@H](CO)NC(=O)[C@@H](NC(=O)[C@H](Cc1ccccc1)NC(=O)[C@@H](NC(=O)CNC(=O)[C@H](CCC(N)=O)NC(=O)[C@H](CO)NC(=O)[C@@H](N)Cc1c[nH]cn1)[C@@H](C)O)[C@@H](C)O)C(C)C)C(C)C)C(=O)N[C@@H](CC(C)C)C(=O)N[C@@H](CO)C(=O)N[C@H](C(=O)O)[C@@H](C)O` [Example 97, N^ε24-[(4S)-4-carboxy-4-[[(4S)-4-carboxy-4-[[2-[2-[2-[[2-[2-[2-[[(4S)-4-carboxy-4-(15-carboxypentadecanoylamino)butanoyl]amino]ethoxy]ethoxy]acetyl]amino]ethoxy]ethoxy]acetyl]amino]butanoyl]amino]butanoyl]-[Arg12,Val16,Lys24,Leu27,Ser28]-Glucagon] (H-HSQGTFTSDYSRYLDVRRAQDFVK([γGlu-γGlu-AEEA-AEEA-γGlu-C16 diacid])WLLST-OH; N-terminus and C-terminus assumed): the negative logarithm of the EC50 (pEC50) in data set [1] was 10.59.
